Data: patent US9855277B2, “Use of 5H-dibenz/b,f/azepine-5-carboxamide derivatives for treating fibromyalgia” (BIAL—PORTELA & CA, S.A., priority 2009, dated 2018)

Key:
Assay type in all cases: in vivo
[1] = test system: mice with chronic constriction nerve injury (CCI); assay: Paw withdrawal threshold (von Frey filaments) in CCI mice
Protocol: The materials used were (as also indicated in FIGS. 1 and 2): • Vehicle: 0.5% hydroxy-propyl-methyl-cellulose (HPMC) in water, 5 ml/kg, p.o.; • 50 mg/kg, 100 mg/kg, 150 mg/kg and 200 mg/kg: ESL at 50, 100, 150 and 200 mg/kg, p.o.; • GP 100 mg/kg: gabapentin 100 mg/kg, p.o.
The potential analgesic effects of orally dosed ESL was investigated at doses of 50, 100, 150 and 200 mg/kg, on the paw withdrawal threshold (PWT) and these effects compared with those of the dose vehicle and gabapentin, the latter at 100 mg/kg, in a mouse model of chronic constriction nerve injury (CCI).
Each animal received a single oral dose of either ESL (50, 100, 150, or 200 mg/kg), or gabapentin (100 mg/kg in saline) or vehicle (5 ml/kg). Behavioural testing was then performed twice, at approximately 60 and 120 minutes post-dose, to investigate the effect of treatments.

[2] = Plasma bioanalysis in CCI mice after oral ESL; settings: oral ESL
[3] = test system: dorsal horn neurones of CCI mice; assay: Spontaneous activity of dorsal horn neurones in CCI mice (extracellular recording); settings: ESL 100 mg/kg i.p.; for spontaneous activity of dorsal horn neurones, firing rate: 5 preparations
Excerpt: Adult male BL CB F1 mice, weighing 25-30 g at the time of surgery and 26-38 g at the time of electrophysiological experiments, were used. The baseline paw withdrawal threshold (PWT) was examined using a series of graduated von Frey hairs (see below) on 3 consecutive days before surgery and re-assessed on the 7th and on the 14th days after surgery, before electrophysiological recording. The animals were killed by an overdose of pentobarbitone on completion of the study. The chronic constriction injury (CCI) model was prepared following the standard protocols described previously (Bennett and Xie, 1988). Mice were anaesthetised and the lateral side of the left thigh was shaved and sterilized with 75% ethanol. A small incision of approximately 0.5 cm was made parallel to the femur. The muscle was carefully separated to expose the sciatic nerve. Three loose ligatures were placed on the sciatic nerve with 5-0 suture silk thread at approximately 1 mm intervals. The wound was closed in layers with suture silk 4-0 and the animals were placed in a recovery chamber with the temperature controlled and set at 30° C. A dose of amoxicillin (0.02 mL, 3 mg) was routinely injected i.p. after surgery to prevent infection. The animals were returned to their home cages after complete recovery of consciousness and freedom of movement. For the first 2 days after surgery, the animals were closely monitored at least twice daily and subsequently, at least once daily until compound testing. The baseline PWT was tested for 3 consecutive days before surgery and re-assessed on the 7th and 14th days after surgery to monitor the development of mechanical allodynia. Only those mice showing significant mechanical allodynia (PWT≦0.2 g) were selected for subsequent electrophysiological experiments. After behavioural validation, the mice were re-anaesthetised, body temperature was monitored and controlled within a physiological range via a thermo-blanket system, and the electrocardiogram (ECG) was routinely monitored through a pair of stainless steel needles inserted into the left fore-paw and right hind-paw. A laminectomy was carried out to expose the L2-L6 segments of the spinal cord. In some experiments, spinalisation at the C2-C3 level or section of the L4-L6 dorsal roots of the left side at a site near the root entry zone to the spinal cord, was performed. A protective pool was formed and filled with warm mineral oil to cover the spinal cord and the sectioned roots. Extracellular unitary recordings of spontaneous activity from the spinal dorsal horn neurones were achieved by using a carbon microelectrode driven by an electrode manipulator. The electrical signals were recorded through a CED micro-1401 interface to a PC for later off-line analysis. Recording from a dorsal horn neurone displaying spontaneous electrical discharge was undertaken for a period of at least 10 min for control and 40 min after either vehicle or ESL administration. The suspension was prepared with a vehicle containing 30% DMSO in 0.9% sodium chloride to a dose concentration of 50 mg/mL. The vehicle and ESL were injected intraperitoneally at a volume of 2 mL/kg through a needle connected with a 1 mL syringe placed prior to the experiment. Each animal received only one treatment of either vehicle or ESL (100 mg/kg). Spontaneous activity was counted as firing rate per minute. An average firing rate over 5 min periods, recorded consecutively immediately prior to vehicle injection or ESL was used as control (and standardized as 100%). The average firing rate over a 5 min period recorded 30-35 min after vehicle or ESL injection was used to quantify firing rate following treatment and compared with the control level. Due to the high level of variation in frequency of spontaneous ectopic discharge from preparation to preparation; all data were standardized relative to control. All data were expressed as mean±SEM. A paired Student's t-test (two-way) was used to compare different time points in the same group. […]

Mice (NMRI) = assay: Formalin paw test; settings: 300 mg/kg p.o.
Protocol: The method, which detects analgesic activity, follows that described by Wheeler-Aceto et al (see […]-ACETO, H. & A., C. (1991), “Standardization of the rat paw formalin test for the evaluation of analgesics”, Psychopharmacology, 104, 35-44). Mice (NMRI) were given an intraplantar injection of 5% formalin (25 μl) into the posterior left paw. […] The time spent licking was counted for 15 minutes, beginning 15 minutes after injection of formalin. 10 mice were studied per group. The test was performed blind. ESL and carbamazepine (CBZ) were tested at the doses of 10, 30, 100 and 300 mg/kg p.o., and oxcarbazepine (OXC) and R-Lic were tested at the doses of 100 and 300 mg/kg p.o., administered 60 minutes before the test (i.e. 45 minutes before formalin), and compared with a vehicle control group in each experiment. Morphine (64 mg/kg p.o.), administered under the same experimental conditions, was used as reference substance.

Question: For `CC(=O)O[C@H]1Cc2ccccc2N(C(N)=O)c2ccccc21` [ESL, S-(−)-10-acetoxy-10,11-dihydro-5H-dibenz/b,f/azepine-5-carboxamide], which “PWT in the contralateral limbs vs vehicle group” value ([1]; 50 mg/kg group on 14th to 16th day, P<0.05) is on record?
Answer: significantly higher

Question: And the “potency and efficacy compared with reference compound” value ([1]; CCI mice, PWT)?
Answer: potency and efficacy similar to the reference compound, gabapentin

Question: What about the “PWT in the ipsilateral hindpaw” value ([1]; ESL 50, 100, 150, 200 mg/kg p.o., single dose, tested about 60 and 120 min post-dose) of the same compound?
Answer: dose-dependently increased the PWT

Question: And the “PWT in the contralateral side” value ([1]; ESL 50-200 mg/kg p.o., vs vehicle)?
Answer: did not significantly affect the PWT

Question: What about the “duration of the effect on PWT after dosing” value ([1]; ESL p.o., ipsilateral hindpaw) of the same compound?
Answer: more than 2 hours

Question: And the “main metabolite in plasma” value [2]?
Answer: mainly to eslicarbazepine

Question: And the “time to complete metabolism after administration (plasma)” value [2]?
Answer: ≤ 1 h

Question: What about the “spontaneous activity, % of control” value ([3]; dorsal root (L4-L6) sectioned CCI mice, 30-35 min, P<0.01 vs vehicle) of the same compound?
Answer: 29.5±13.3 % of control

Question: And the “spontaneous activity of dorsal horn neurones, average firing rate” value ([3]; dorsal root (L4-L6) sectioned CCI mice, 30-35 min, control 378.1±85.4, 8 preparations)?
Answer: 97.5±39.0 imps/min

Question: What about the “spontaneous activity, % of control level” value ([3]; intact CCI mice, 30-35 min, P<0.01 vs control) of the same compound?
Answer: 26.3±10.1 % of control

Question: What about the “spontaneous activity of dorsal horn neurones, firing rate” value ([3]; intact CCI mice, 30-35 min after injection, control 780.7±462.5) of the same compound?
Answer: 113.6±43.9 imps/min

Question: And the “spontaneous activity, % of control levels” value ([3]; spinalised (C2-C3) CCI mice, 30-35 min, P<0.001)?
Answer: 14.8±6.8 % of control

Question: And the “spontaneous activity of dorsal horn neurones, firing rate” value ([3]; spinalised (C2-C3) CCI mice, 30-35 min, control 504.5±286.1, P>0.05)?
Answer: 31.2±12.7 imps/min

Question: What about the “licking in the formalin test at 300 mg/kg” value (Mice (NMRI)) of the same compound?
Answer: abolished licking
